According to ChEMBL document CHEMBL3885861, “Open TG-GATES”:

Organism: Rattus norvegicus
Experiment: Open TG-GATES - Regimen: Single
Type: toxicity, organism-based, Sprague-Dawley
Set-up: regimen Single, gender Male, age 6 weeks
Conditions: in vivo, po, route gavage; for gamma-GTP / ALP / ALT / AST / BUN / CRE / Ca / Cl / DBIL / GLC / IP / K / LDH / Na / PL / RALB / TBIL / TC / TG / TP: tissue Plasma; for Bas / Eos / Fbg / Hb / Ht / Lym / MCHC / MCV / Mono / Neu / PT / Plat / RBC / Ret / WBC / APTT: tissue Blood
[1] = 300 mg/kg, 3 h, dose level Middle
[2] = 300 mg/kg, 6 h, dose level Middle
[3] = 300 mg/kg, 9 h, dose level Middle
[4] = 300 mg/kg, 24 h, dose level Middle
[5] = 1000 mg/kg, 3 h, dose level High
[6] = 1000 mg/kg, 6 h, dose level High
[7] = 1000 mg/kg, 9 h, dose level High
[8] = 1000 mg/kg, 24 h, dose level High

## O=C(O)c1cccnc1 [NIACIN]
100 mg/kg, 24 h, dose level Low
  gamma-GTP: 1 IU/L
[1]
  Bas: 0%
  Eos: 1%
  Fbg: 304.8 mg/dL
  Hb: 13.1 g/dL
  Ht: 39.9%
  Lym: 79.2%
  MCHC: 32.9%
  MCV: 64.5 fL
  Mono: 2.4%
  Neu: 16.2%
  PT: 16 s
  Plat: 118.4 x10_4/uL
  RBC: 620.8 x10_4/ul
  Ret: 8.5%
  WBC: 82.2 x10_2/uL
  ALP: 1554 IU/L
  ALT: 38.4 IU/L
  AST: 73 IU/L
  BUN: 13.2 mg/dL
  CRE: 0.2 mg/dL
  Ca: 10.8 mg/dL
  Cl: 105.6 meq/L
  DBIL: 0.002 mg/dL
  GLC: 179.4 mg/dL
  IP: 9.3 mg/dL
  K: 3.7 meq/L
  LDH: 184 IU/L
  Na: 140.2 meq/L
  PL: 120.6 mg/dL
  RALB: 3 g/dL
  TBIL: 0 mg/dL
  TC: 73.6 mg/dL
  TG: 28.8 mg/dL
  TP: 5.6 g/dL
  gamma-GTP: 1.2 IU/L
[2]
  Bas: 0%
  Eos: 0.8%
  Fbg: 329.8 mg/dL
  Hb: 13.6 g/dL
  Ht: 41.4%
  Lym: 73%
  MCHC: 32.9%
  MCV: 62.9 fL
  Mono: 2.4%
  Neu: 23%
  PT: 16.6 s
  Plat: 119.6 x10_4/uL
  RBC: 657.8 x10_4/ul
  Ret: 8.4%
  WBC: 82.7 x10_2/uL
  ALP: 1294 IU/L
  ALT: 40.2 IU/L
  AST: 71.4 IU/L
  BUN: 12.6 mg/dL
  CRE: 0.1 mg/dL
  Ca: 10.6 mg/dL
  Cl: 106.4 meq/L
  DBIL: 0.002 mg/dL
  GLC: 182.4 mg/dL
  IP: 9.6 mg/dL
  K: 3.7 meq/L
  LDH: 211.8 IU/L
  Na: 140.6 meq/L
  PL: 125.8 mg/dL
  RALB: 3 g/dL
  TBIL: 0.002 mg/dL
  TC: 76.2 mg/dL
  TG: 31 mg/dL
  TP: 5.6 g/dL
  gamma-GTP: 1.4 IU/L
[3]
  APTT: 22.4 s
  Bas: 0%
  Eos: 0.8%
  Fbg: 304.4 mg/dL
  Hb: 13.1 g/dL
  Ht: 39.5%
  Lym: 71.8%
  MCHC: 33.3%
  MCV: 62.6 fL
  Mono: 2.2%
  Plat: 114.7 x10_4/uL
  RBC: 631.4 x10_4/ul
  Ret: 8.5%
  WBC: 72.8 x10_2/uL
  ALP: 1319 IU/L
  ALT: 38.4 IU/L
  AST: 72.2 IU/L
  CRE: 0.2 mg/dL
  Ca: 10.9 mg/dL
  Cl: 105.2 meq/L
  DBIL: 0.006 mg/dL
  GLC: 176 mg/dL
  IP: 9.1 mg/dL
  K: 4.2 meq/L
  LDH: 169.8 IU/L
  Na: 140.8 meq/L
  PL: 124.8 mg/dL
  RALB: 2.8 g/dL
  TBIL: 0.004 mg/dL
  TC: 70.2 mg/dL
  TG: 50.4 mg/dL
  TP: 5.3 g/dL
  gamma-GTP: 1.6 IU/L
[4]
  Bas: 0%
  Eos: 1%
  Fbg: 343 mg/dL
  Hb: 13.7 g/dL
  Ht: 40%
  Lym: 78.4%
  MCHC: 34.2%
  MCV: 62.5 fL
  Mono: 2.6%
  Neu: 16.6%
  PT: 16 s
  Plat: 120.8 x10_4/uL
  RBC: 640 x10_4/ul
  Ret: 6.4%
  WBC: 98.1 x10_2/uL
  ALP: 1858 IU/L
  AST: 70.4 IU/L
  BUN: 14 mg/dL
  CRE: 0.1 mg/dL
  Ca: 10.7 mg/dL
  Cl: 104.4 meq/L
  DBIL: 0 mg/dL
  GLC: 192 mg/dL
  IP: 7.9 mg/dL
  K: 4.1 meq/L
  LDH: 172.2 IU/L
  Na: 139.8 meq/L
  PL: 156.8 mg/dL
  RALB: 3 g/dL
  TBIL: 0 mg/dL
  TC: 79.4 mg/dL
  TG: 134.4 mg/dL
  TP: 5.6 g/dL
  gamma-GTP: 1.4 IU/L
[5]
  Bas: 0%
  Eos: 1.2%
  Fbg: 303 mg/dL
  Hb: 13.2 g/dL
  Lym: 75.2%
  MCHC: 32.8%
  MCV: 62.8 fL
  Mono: 2.4%
  Neu: 20%
  PT: 16.2 s
  Plat: 114.5 x10_4/uL
  RBC: 642.4 x10_4/ul
  Ret: 8.7%
  WBC: 70.3 x10_2/uL
  ALP: 1421 IU/L
  ALT: 43.6 IU/L
  AST: 79.4 IU/L
  BUN: 12.2 mg/dL
  CRE: 0.2 mg/dL
  Ca: 10.6 mg/dL
  Cl: 106.2 meq/L
  DBIL: 0 mg/dL
  GLC: 187 mg/dL
  IP: 9.4 mg/dL
  K: 3.6 meq/L
  LDH: 226.4 IU/L
  Na: 140.8 meq/L
  PL: 118.2 mg/dL
  RALB: 3.1 g/dL
  TBIL: 0 mg/dL
  TC: 72.4 mg/dL
  TG: 24.4 mg/dL
  TP: 5.6 g/dL
  gamma-GTP: 1.2 IU/L
[6]
  Bas: 0%
  Eos: 1%
  Fbg: 311 mg/dL
  Hb: 13.6 g/dL
  Ht: 41.3%
  Lym: 75.8%
  MCHC: 32.8%
  MCV: 64.6 fL
  Mono: 2%
  Neu: 20.4%
  PT: 16.4 s
  Plat: 121.3 x10_4/uL
  RBC: 641.2 x10_4/ul
  Ret: 8.2%
  WBC: 74.6 x10_2/uL
  ALP: 1566.4 IU/L
  ALT: 35 IU/L
  AST: 74.6 IU/L
  BUN: 12.4 mg/dL
  CRE: 0.2 mg/dL
  Ca: 10.6 mg/dL
  Cl: 107.6 meq/L
  DBIL: 0 mg/dL
  GLC: 181 mg/dL
  IP: 9.2 mg/dL
  K: 3.8 meq/L
  LDH: 210.8 IU/L
  Na: 139.6 meq/L
  PL: 115.2 mg/dL
  RALB: 3 g/dL
  TBIL: 0 mg/dL
  TC: 69.6 mg/dL
  TG: 27.8 mg/dL
  TP: 5.6 g/dL
  gamma-GTP: 1.4 IU/L
[7]
  APTT: 22.8 s
  Bas: 0%
  Eos: 1%
  Fbg: 324 mg/dL
  Hb: 13.3 g/dL
  Lym: 67%
  MCHC: 33%
  MCV: 62 fL
  Mono: 1.8%
  Neu: 29.8%
  PT: 15.6 s
  Plat: 116.6 x10_4/uL
  RBC: 651 x10_4/ul
  Ret: 8%
  WBC: 71.1 x10_2/uL
  ALP: 1673.4 IU/L
  ALT: 41.2 IU/L
  AST: 75.2 IU/L
  BUN: 13 mg/dL
  CRE: 0.2 mg/dL
  Ca: 10.8 mg/dL
  Cl: 106.8 meq/L
  DBIL: 0.004 mg/dL
  GLC: 171.2 mg/dL
  IP: 9.4 mg/dL
  K: 3.9 meq/L
  LDH: 198.2 IU/L
  Na: 139.8 meq/L
  PL: 101.2 mg/dL
  RALB: 3.1 g/dL
  TBIL: 0.002 mg/dL
  TC: 60.6 mg/dL
  TG: 17.2 mg/dL
  TP: 5.5 g/dL
  gamma-GTP: 1.2 IU/L
[8]
  Bas: 0%
  Eos: 1%
  Fbg: 319 mg/dL
  Hb: 13.3 g/dL
  Ht: 39.7%
  Lym: 71.4%
  MCHC: 33.4%
  MCV: 63.3 fL
  Mono: 3%
  Neu: 23.2%
  PT: 15.9 s
  Plat: 117.3 x10_4/uL
  RBC: 627 x10_4/ul
  Ret: 7.2%
  WBC: 92.1 x10_2/uL
  ALP: 1735.4 IU/L
  ALT: 53 IU/L
  AST: 75.4 IU/L
  BUN: 16.6 mg/dL
  CRE: 0.2 mg/dL
  Ca: 10.5 mg/dL
  Cl: 104.4 meq/L
  DBIL: 0 mg/dL
  GLC: 188.6 mg/dL
  IP: 8.1 mg/dL
  K: 4.1 meq/L
  LDH: 174.8 IU/L
  Na: 139.6 meq/L
  PL: 144.2 mg/dL
  RALB: 3 g/dL
  TBIL: 0 mg/dL
  TC: 70.6 mg/dL
  TG: 119.2 mg/dL
  TP: 5.4 g/dL
  gamma-GTP: 1 IU/L
